How the values were obtained:
healthy subjects [1] = assay: Pictorial Empathy Test (PET); format: in vivo, human
Description: In some embodiments, the Pictorial Empathy Test (PET) is utilized to evaluate the effect of psilocybin on affective empathy.
The following list of outcome measures are non-exhaustive. • a. The short-term change from Baseline (Day −1 [Visit 2]) to Day 7 (Visit 5) in cognitive measures of attention, spatial and working memory and executive function was measured by a composite score of the CANTAB Panel (Spatial Working Memory [SWM], Rapid Visual Information Processing [RVP], Paired Associates Learning [PAL]). • b. The short-term change from Baseline (Day −1 [Visit 2]) to Day 7 (Visit 5) in Social Cognition Panel scales (Pictorial Empathy Test [PET], Reading the Mind in the Eyes Test [RMET], Toronto Empathy Questionnaire [TEQ], Social Value Orientation [SVO], Scale of Social Responsibility [SSR]). • c. The change from Baseline (Day −1 [Visit 2]) to Day 28 (Visit 6) in cognitive measures of attention, spatial and working memory and executive function as measured by a composite score of the CANTAB Panel (SWM, RVP, PAL). • d. The long-term change from Baseline (Day −1 [Visit 2]) to Day 84 (Visit 7) in Social Cognition Panel scales (PET, RMET, TEQ, SVO, SSR). • e. Dose-related differences between cognitive effects of psilocybin at Baseline (Day −1 [Visit 2]), Day 7 (Visit 5) and Day 28 (Visit 6), as measured by a composite score of the CANTAB Panel (SWM, RVP, PAL). • f. Dose-related differences between psychological effects of psilocybin at Baseline (Day −1 [Visit 2]), Day 7 (Visit 5) and Day 84 (Visit 7), as measured by Social Cognition Panel scales (PET, RMET, TEQ, SVO, SSR). • g. Differences in cognitive effects of psilocybin between psilocybin-naïve and experienced subjects at Baseline (Day −1 [Visit 2]), Day 7 (Visit 5) and Day 28 (Visit 6), as measured by a composite score of the CANTAB Panel (SWM, RVP, PAL). • h. Differences in Positive and Negative Affect Schedule (PANAS) after study drug administration on Day 0 (Visit 3). • i. Differences between psilocybin and placebo in the Emotion Recognition Test (ERT), Intra-Extra Dimensional Set Shift (IED), One Touch Stockings (OTS), Verbal Fluency and Digit Span Forward at Day 7 (Visit 5). • j. A composite score of the CANTAB Panel, including the following tests: • i. Spatial Working Memory (SWM) (performed at Visit 2, Visit 5, and Visit 6). • ii. Rapid Visual Information Processing (RVP) (performed at Visit 2, Visit 5, and Visit 6). • iii. Paired Associates Learning (PAL) (performed at Visit 2, Visit 5, and Visit 6). • k. Cognitive Flexibility Panel • i. Emotion Recognition Task (ERT) (performed at Visit 5). • ii. Intra-Extra Dimensional Set Shift (IED) (performed at Visit 5). • iii. One Touch Stockings (OTS) (performed at Visit 5). • iv. Verbal Fluency (performed at Visit 5). • v. Digit Span Forward (performed at Visit 5). • l. Five Dimension Altered States of Consciousness questionnaire (5D-ASC) (performed at Visit 3). • m. PANAS (performed at Visit 2 and Visit 3). • n. NEO-Five Factor Inventory (NEO-FFI) (performed at Visit 2, Visit 5, and Visit 7). • o. Symptom Checklist-90 item (SCL-90) (performed at Visit 2, Visit 5, and Visit 7). • p. Life Changes Inventory (LCI): The LCI measures changes in attitudes and values after near-death experiences often used to evaluate personal transformation following spiritually oriented experiences and practices. (performed at Visit 5 and Visit 7). • q. Social Cognition Panel scales • i. Pictorial Empathy Test (PET) (performed at Visit 2, Visit 5, and Visit 7). • ii. Reading the Mind in the Eyes Test (RMET) (performed at Visit 2, Visit 5, and Visit 7). • iii. Social Value Orientation (SVO) (performed at Visit 2, Visit 5, and Visit 7). • iv. Toronto Empathy Questionnaire (TEQ) (performed at Visit 2, Visit 5, and Visit 7). • v. Scale of Social Responsibility (SSR) (performed at Visit 2, Visit 5, and Visit 7). • r. Sheehan Suicidality Tracking Scale (SSTS) • s. Mini International Neuropsychiatric Interview (MINI). • t. […]

healthy subjects [2] = assay: NEO-Five Factor Inventory (NEO-FFI); format: in vivo, human
Description: In some embodiments, the NEO-Five Factor Inventory (NEO-FFI) test is used to evaluate the safety and/or efficacy of psilocybin. The NEO-FFI evaluates 5 broad domains of personality—Neuroticism, Extroversion, Openness, Agreeableness and Conscientiousness.
The Neuroticism Extraversion Openness-Five Factor Inventory (NEO-FFI) and Symptom Checklist-90 Item (SCL-90) were administered. Details of the MMRM applied to the change from baseline scores for the NEO-FFI and SCL-90 are provided below in Table 28.

CN(C)CCc1c[nH]c2cccc(OP(=O)(O)O)c12 [psilocybin]
PET change from baseline, LS mean difference Psilocybin 10 mg - Placebo (healthy subjects [1]; Day 7, MMRM): −0.1 | PET change from baseline, LS mean difference Psilocybin 25 mg - Placebo (healthy subjects [1]; Day 7, MMRM): 0.2 | PET change from baseline, LS mean difference Psilocybin 25 mg-10 mg (healthy subjects [1]; Day 7, MMRM): 0.3 | PET change from baseline, LS mean difference Psilocybin 10 mg - Placebo (healthy subjects [1]; Day 84, MMRM): −0.1 | PET change from baseline, LS mean difference Psilocybin 25 mg - Placebo (healthy subjects [1]; Day 84, MMRM): 0.1 | PET change from baseline, LS mean difference Psilocybin 25 mg-10 mg (healthy subjects [1]; Day 84, MMRM): 0.3 | NEO agreeableness change from baseline, difference Psilocybin 10 mg - Placebo (healthy subjects [2]; Day 7): −0.4 | NEO agreeableness change from baseline, difference Psilocybin 25 mg - Placebo (healthy subjects [2]; Day 7): −0.1 | NEO agreeableness change from baseline, difference Psilocybin (25 mg-10 mg) (healthy subjects [2]; Day 7): 0.4 | NEO conscientiousness change from baseline, difference Psilocybin 10 mg - Placebo (healthy subjects [2]; Day 7): 0.4 | NEO conscientiousness change from baseline, difference Psilocybin 25 mg - Placebo (healthy subjects [2]; Day 7): 0.7 | NEO conscientiousness change from baseline, difference Psilocybin (25 mg-10 mg) (healthy subjects [2]; Day 7): 0.3 | NEO extraversion change from baseline, difference Psilocybin 10 mg - Placebo (healthy subjects [2]; Day 7): 0.4 | NEO extraversion change from baseline, difference Psilocybin 25 mg - Placebo (healthy subjects [2]; Day 7): 0.5 | NEO extraversion change from baseline, difference Psilocybin (25 mg-10 mg) (healthy subjects [2]; Day 7): 0.1 | NEO neuroticism change from baseline, difference Psilocybin 10 mg - Placebo (healthy subjects [2]; Day 7): −0.2 | NEO neuroticism change from baseline, difference Psilocybin 25 mg - Placebo (healthy subjects [2]; Day 7): 0.2 | NEO neuroticism change from baseline, difference Psilocybin (25 mg-10 mg) (healthy subjects [2]; Day 7): −0.0 | NEO openness change from baseline, difference Psilocybin 10 mg - Placebo (healthy subjects [2]; Day 7): 1.1 | NEO openness change from baseline, difference Psilocybin 25 mg - Placebo (healthy subjects [2]; Day 7): 1.2 | NEO openness change from baseline, difference Psilocybin (25 mg-10 mg) (healthy subjects [2]; Day 7): 0.1 | NEO agreeableness change from baseline, difference Psilocybin 10 mg - Placebo (healthy subjects [2]; Day 84): −0.8 | NEO agreeableness change from baseline, difference Psilocybin 25 mg - Placebo (healthy subjects [2]; Day 84): −0.7 | NEO agreeableness change from baseline, difference Psilocybin (25 mg-10 mg) (healthy subjects [2]; Day 84): 0.1 | NEO conscientiousness change from baseline, difference Psilocybin 10 mg - Placebo (healthy subjects [2]; Day 84): 0.2 | NEO conscientiousness change from baseline, difference Psilocybin 25 mg - Placebo (healthy subjects [2]; Day 84): 1.4 | NEO conscientiousness change from baseline, difference Psilocybin (25 mg-10 mg) (healthy subjects [2]; Day 84): 1.2 | NEO extraversion change from baseline, difference Psilocybin 10 mg - Placebo (healthy subjects [2]; Day 84): −0.7 | NEO extraversion change from baseline, difference Psilocybin 25 mg - Placebo (healthy subjects [2]; Day 84): −0.5 | NEO extraversion change from baseline, difference Psilocybin (25 mg-10 mg) (healthy subjects [2]; Day 84): 0.2 | NEO neuroticism change from baseline, difference Psilocybin 10 mg - Placebo (healthy subjects [2]; Day 84): 0.3 | NEO neuroticism change from baseline, difference Psilocybin 25 mg - Placebo (healthy subjects [2]; Day 84): −1.0 | NEO neuroticism change from baseline, difference Psilocybin (25 mg-10 mg) (healthy subjects [2]; Day 84): −1.3 | NEO openness change from baseline, difference Psilocybin 10 mg - Placebo (healthy subjects [2]; Day 84): 1.1 | NEO openness change from baseline, difference Psilocybin 25 mg - Placebo (healthy subjects [2]; Day 84): 0.4 | NEO openness change from baseline, difference Psilocybin (25 mg-10 mg) (healthy subjects [2]; Day 84): −0.7

From patent publication US11865126B2, “Method for treating anxiety disorders, headache disorders, and eating disorders with psilocybin” (priority 2019, dated 2024)
